Measured values from paper PMC6894747 (PLoS Pathogens, 2019).
Read-outs that look alike come from different tables or passages of the source. Positions of bridges follow the written chain, without caps; N, C: chain ends. Residues, ends and D or L forms follow the SMILES beside them.

Experiments:
[1] = system: HIV-1 Bal (subtype B, R5); assay type: cell-based; conditions: Bal (subtype B, R5)
Method: (§2) Briefly, 1×10^5/mL MT-2 or M7 cells were infected with different HIV-1 viruses at 100 TCID50 (50% tissue culture infective dose) in the presence or absence of peptides at graded concentrations overnight. Then the culture supernatants were replaced with equal volume of fresh medium. On the fourth day post-infection, supernatants were collected and mixed with equal volume of 5% Triton X-100. […] The IC50 values were calculated with CalcuSyn software [35–36], and inhibition curves of best fit were generated with GraphPad Prism.

[2] = system: HIV-1 IIIB (subtype B, X4); assay type: cell-based; conditions: IIIB (subtype B, X4)
Method: as §2

[3] = target: rhesus monkey IgG; assay: Isothermal titration calorimetry (ITC); assay type: binding; conditions: 300 μM peptide injected into 30 μM rhesus monkey IgG, PBS, 25 °C
Method: ITC assay was performed with an ITC microcalorimeter instrument (NANO ITC, TA Instruments, Lindon, UT) as described previously. In brief, 300 μM peptides were dissolved in PBS and injected into the chamber containing 30 μM of rhesus monkey IgG. The experiments were carried out at 25 °C. The time between injections was 300 s, and the stirring speed was 300 rpm. The heats of dilution were determined in control experiments by injecting peptides into PBS and then subtracting from the heats produced in the corresponding peptide-IgG binding experiments. Data acquisition and analysis were performed using the Origin software, and the best fitting curves were generated with GraphPad Prism.

[4] = system: M7 cells; assay: Cytotoxicity assay (CCK-8); assay type: cell-based; conditions: up to 5 μM, 48 h, triplicate
Method: (§1) The potential cytotoxicity of peptides on MT-2 and M7 cells was measured by using the Cell Counting Kit-8 according to the manufacturer’s instructions (CCK-8, Dojindo Laboratories, Kumamoto, Japan). Briefly, 100 μL of a peptide at graded concentrations were added to equal volumes of cells (10^4 cells/well) in a 96-well plate. Cell viability was evaluated using the CCK-8 kit after incubation at 37 °C for 2 days. Incubation with CCK-8 reagents at 37 °C for another 4 h, the absorbance at 450 nm was measured with an ELISA reader, and the percentage of cytotoxicity was calculated.

[5] = system: MT-2 cells; assay: Cytotoxicity assay (CCK-8); assay type: cell-based; conditions: up to 5 μM, 48 h, CCK-8; triplicate
Method: as §1

[6] = system: H9/HIV-1IIIB target cells with PBMC effector cells; assay: ADCC assay, 10E8-mediated lysis; assay type: cell-based, human; conditions: peptide up to 20 μM added to 10E8
Method: H9/HIV-1IIIB cells expressing HIV-1 Env (2.5 × 10^4 cells) as the target cells were seeded into a 96-well plate (25 μL/well), and the mixture of a serially diluted inhibitors and 10E8 (1.5 μg/mL) was added to the culture plate. PBMC (AllCells) as effector cells (2.5 × 10^4 cells in 25 μL) were cocultured with the mixture-treated target cells at 37 °C overnight, and the […] activity was measured using the CytoTox-ONE Homogeneous Membrane Integrity Assay (Promega).

[7] = system: HIV-1 IIIB; assay: Inhibitors alone or in combination against HIV-1 IIIB; assay type: cell-based
Method: The samples were serially diluted and tested for their inhibitory activity on HIV-1 infection as described above. The data were analyzed for synergistic effect by calculating the combination index (CI) with the CalcuSyn software. CI values of <0.95 and >1.05 indicate synergy and antagonism, respectively. CI <0.1, 0.1–0.3, 0.3–0.7, 0.7–0.85, and 0.85–0.90 indicate very strong synergism, strong synergism, synergism, moderate synergism, and slight synergism, respectively. Fold of dose reduction was calculated with the ratio of concentrations of inhibitor testing alone and in combination.

[8] = set-up: method as in PMID 16174446; conditions: reported value; cited from earlier work

## CC[C@H](C)[C@H](NC(=O)[C@H](CC(C)C)NC(=O)[C@H](CCC(=O)O)NC(=O)[C@H](CCC(=O)O)NC(=O)[C@@H](NC(=O)[C@H](CCCCN)NC(=O)[C@H](CCCCN)NC(=O)[C@@H](NC(=O)[C@H](Cc1ccc(O)cc1)NC(=O)[C@H](CCC(=O)O)NC(=O)[C@H](CCC(=O)O)NC(=O)[C@@H](NC(=O)[C@H](CCCCN)NC(=O)[C@H](CCCCN)NC(=O)[C@H](CC(=O)O)NC(=O)[C@H](Cc1c[nH]c2ccccc12)NC(=O)[C@H](CCC(=O)O)NC(=O)[C@H](CCC(=O)O)NC(=O)[C@H](Cc1c[nH]c2ccccc12)NC(=O)[C@@H](NC(=O)[C@@H](N)CCSC)[C@@H](C)O)[C@@H](C)CC)[C@@H](C)O)[C@@H](C)CC)C(=O)N[C@@H](CCCCN)C(=O)N[C@@H](CCCCN)C(=O)N[C@@H](CO)C(=O)N[C@@H](CC(=O)O)C(=O)N[C@H]1CSSC[C@@H](C(=O)N[C@H](C(=O)O)[C@@H](C)O)NC(=O)[C@H](Cc2c[nH]c3ccccc23)NC(=O)[C@H](C(C)C)NC(=O)[C@H](CC(C)C)NC(=O)[C@H](CCC(=O)O)NC(=O)CNC(=O)[C@H](CC(C)C)NC(=O)[C@H](Cc2c[nH]cn2)NC(=O)[C@H](Cc2c[nH]c3ccccc23)NC(=O)[C@H](C)NC1=O [CP24-IBP] (H-MTWEEWDKKIEEYTKKIEELIKKSDCAWHLGELVWCT-OH; disulfide 26-36)
[1]
  IC50: 0.011 µM
[2]
  IC50: 0.0413 µM

## CC(C)C[C@@H]1NC(=O)[C@H](Cc2c[nH]cn2)NC(=O)[C@H](Cc2c[nH]c3ccccc23)NC(=O)[C@H](C)NC(=O)[C@@H](NC(=O)[C@@H](N)CC(=O)O)CSSC[C@@H](C(=O)N[C@H](C(=O)O)[C@@H](C)O)NC(=O)[C@H](Cc2c[nH]c3ccccc23)NC(=O)[C@H](C(C)C)NC(=O)[C@H](CC(C)C)NC(=O)[C@H](CCC(=O)O)NC(=O)CNC1=O [IBP]
[3]
  Kd: 2.44 µM
[4]
  in vitro cytotoxicity to M7 cells: no in vitro cytotoxicity
[5]
  in vitro cytotoxicity to MT-2 cells: no in vitro cytotoxicity
[6]
  effect on 10E8-mediated lytic activity: remained about the same

## CC1(C)CC(NC(=O)C(=O)Nc2ccc(Cl)cc2)CC(C)(C)N1 [NBD556]
[7]; experiment N6 / NBD556, HIV-1 IIIB, read-out: IC50 Alone
  IC50: 28.1 µM
[7]; mixture N6 / NBD556, HIV-1 IIIB
  Dose reduction: 6.1 fold
[7]; mixture N6 / NBD556, HIV-1 IIIB, read-out: IC50 In mixture
  IC50: 4.61 µM

## enfuvirtide
[8]
  reported t1/2: 3 h
